Laboratory results: patent US4559323A, “A41030 Antibiotics” (Eli Lilly and Company, priority 1984, dated 1985)
Where two headings read alike, the source gives them in different places.

Experiments:
Propionibacterium acnes = test: Agar-dilution MIC (anaerobes); format: cell-based; conditions: Table 14; Propionibacterium acnes 79
Description: Antibiotic A41030 factors A, B and C have also been tested and found to be active against a genus of anaerobic bacteria identified as Propionibacterium acnes.

[1] = test system: Bacteroides melaninogenicus; test: Agar-dilution MIC (anaerobes); format: cell-based; conditions: Table 14
[2] = test system: Peptostreptococcus anaerobius; test: Agar-dilution MIC (anaerobes); format: cell-based; conditions: Table 14; Peptostreptococcus anaerobius 1428
Bacteroides fragilis = test: Agar-dilution MIC (anaerobes); format: cell-based; conditions: Table 14
Description: (§1) The agar-dilution procedure described by the International Collaborative study (ICS) group was used to determine the minimum inhibitory concentrations (MIC's).

Clostridium perfringens = format: cell-based; conditions: Table 14; Clostridium perfringens 81
Eubacterium aerofaciens = test: Agar-dilution MIC (anaerobes); format: cell-based; conditions: Table 14; Eubacterium aerofaciens 1235
Peptococcus prevoti = test: Agar-dilution MIC (anaerobes); format: cell-based; conditions: Table 14; Peptococcus prevoti 1281
Fusobacterium symbiosum = test: Agar-dilution MIC (anaerobes); format: cell-based; conditions: Table 14; Fusobacterium symbiosum 1470
[3] = Electrometric titration (pKa); format: physicochemical; conditions: electrometric titration in 66% dimethylformamide in water
Escherichia coli = test: Agar-dilution MIC; format: cell-based; conditions: Table 17; 24 hours; Escherichia coli TEM
Clostridium septicum = test: Agar-dilution MIC (anaerobes); format: cell-based; conditions: Table 14; Clostridium septicum 1128
Salmonella typhi = test: Agar-dilution MIC; format: cell-based; conditions: Table 17, 24 hours
Bacteroides corrodens = test: Agar-dilution MIC (anaerobes); format: cell-based; conditions: Table 14; Bacteroides corrodens 1874
Klebsiella pneumoniae = test: Agar-dilution MIC; format: cell-based; conditions: Table 17; 24 hours; Klebsiella pneumoniae X26
B. thetaiotaomicron = format: cell-based; conditions: Table 14; Bacteroides thetalotaomicron 1438
Description: as §1

[4] = test system: Fusobacterium necrophorum; test: Agar-dilution MIC (anaerobes); format: cell-based; conditions: Table 14; Fusobacterium necrophorum 6054A
Clostridium difficile = format: cell-based
Description: The A41030 antibiotic factors A, B, C, D, E, F, and G, are also active against a number of strains of Clostridium difficile, as determined by the agar-dilution method.

Hemophilus influenzae = test: Agar-dilution MIC; format: cell-based; conditions: Table 17, 24 hours
[5] = test system: Peptostreptococcus intermedius; test: Agar-dilution MIC (anaerobes); format: cell-based; conditions: Table 14; Peptostreptococcus intermedius 1264
[6] = test system: Peptococcus asaccharolyticus; test: Agar-dilution MIC (anaerobes); format: cell-based; conditions: Table 14; Peptococcus asaccharolyticus 1302
S. pyogenes = test: Experimental bacterial infection in mice, subcutaneous ED50; format: in vivo; conditions: two doses subcutaneously
Protocol: (§2) All of the A41030 factors tested have shown in vivo antimicrobial activity against experimental bacterial infections. When two doses of test compound were administered subcutaneously to mice in illustrative infections, the activity observed is measured as an ED50 value [effective dose in mg./kg. to protect fifty percent of the test animals: See Warren Wick, et al., J. Bacteriol. 81, 233-235 (1961)].

S. pneumoniae = test: as above; format: in vivo; conditions: two doses subcutaneously
Protocol: as §2

Staph. aureus = test: as above; format: in vivo; conditions: two doses subcutaneously
Protocol: as §2

Solubility in solvents = format: physicochemical; conditions: solvents as named
Description: The seven antibiotic factors are recovered from the fermentation and are obtained as a mixture, the A41030 complex. It will be recognized that the ratio of the factors in the A41030 complex will vary, depending upon the fermentation conditions used. The individual factors […], and G are separated and isolated as individual compounds, as hereinafter described.

Streptococcus pneumoniae = test: Agar-dilution MIC; format: cell-based; conditions: Table 17; 24 hours; Streptococcus pneumoniae Park I
Description: as §1

[7] = test system: Staphylococcus epidermidis; test: Agar-dilution MIC; format: cell-based; conditions: Table 17, 24 hours
Description: as §1

Streptococcus pyogenes = test: Agar-dilution MIC; format: cell-based; conditions: Table 17; 24 hours; Streptococcus pyogenes C203
Description: as §1

[8] = test system: Streptococcus sp. (Group D); test: Agar-dilution MIC; format: cell-based; conditions: Table 17, 24 hours
Description: as §1

Bacteroides vulgatis = test: Agar-dilution MIC (anaerobes); format: cell-based; conditions: Table 14; Bacteroides vulgatis 1211
Staphylococcus aureus = test: Agar-dilution MIC; format: cell-based

For A41030 factor D, the MIC (Propionibacterium acnes) was 0.25 µg/mL, the MIC ([1]; Bacteroides melaninogenicus 1856/28) was > 64 µg/mL and the MIC ([1]; Bacteroides melaninogenicus 2736) was 0.5 µg/mL. For the same substance, the MIC [2] was 0.5 µg/mL, the MIC (Bacteroides fragilis; Bacteroides fragilis 111) was 32 µg/mL and the MIC (Bacteroides fragilis; Bacteroides fragilis 1877) was 32 µg/mL. It also gave an MIC (Bacteroides fragilis; Bacteroides fragilis 1936B) of 32 µg/mL, an MIC (Clostridium perfringens) of 0.5 µg/mL and an MIC (Eubacterium aerofaciens) of 0.5 µg/mL. The MIC (Peptococcus prevoti) was 0.25 µg/mL, the MIC (Fusobacterium symbiosum) was 0.5 µg/mL and the “pKa, first titratable group” value [3] was “about 5.5”. For the same substance, the “pKa, second titratable group” value [3] was ~7.6, the MIC (Escherichia coli) was 64 µg/mL and the MIC (Clostridium septicum) was 0.25 µg/mL. The MIC (Salmonella typhi; Salmonella typhi 1335) was > 128 µg/mL, the MIC (Salmonella typhi; Salmonella typhi X514) was > 128 µg/mL and the MIC (Bacteroides corrodens) was 32 µg/mL. For the same substance, the MIC (Klebsiella pneumoniae) was 128 µg/mL, the MIC (B. thetaiotaomicron) was 32 µg/mL and the MIC [4] was ≤ 0.125 µg/mL. The MIC (Clostridium difficile) was 0.5 µg/mL, the MIC (Clostridium difficile; Table 16, C. difficile 78) was ≤ 0.25 µg/mL and the MIC (Clostridium difficile; Table 16, C. difficile 107B) was ≤ 0.25 µg/mL. For the same substance, the MIC (Clostridium difficile; Table 16, C. difficile 111F) was ≤ 0.25 µg/mL, the MIC (Clostridium difficile; Table 16, C. difficile 1153) was 1.0 µg/mL and the MIC (Clostridium difficile; Table 16, C. difficile 2634) was 0.5 µg/mL. The MIC (Clostridium difficile; Table 16, C. difficile 3424-5B) was 0.5 µg/mL, the MIC (Clostridium difficile; Table 16, C. difficile 3816) was 0.5 µg/mL and the MIC (Clostridium difficile; Table 16, C. difficile 3950) was 0.5 µg/mL. The MIC (Clostridium difficile; Table 16, C. difficile 6890) was 0.5 µg/mL, the MIC (Clostridium difficile; Table 16, C. difficile 8484) was ≤ 0.25 µg/mL and the MIC (Clostridium difficile; Table 16, C. difficile A-194) was ≤ 0.25 µg/mL. For the same substance, the MIC (Clostridium difficile; Table 16, C. difficile A-195) was ≤ 0.25 µg/mL, the MIC (Clostridium difficile; Table 16, C. difficile A-196) was 0.5 µg/mL and the MIC (Clostridium difficile; Table 16, C. difficile A-279) was ≤ 0.25 µg/mL. The MIC (Clostridium difficile; Table 16, C. difficile A-280) was ≤ 0.25 µg/mL, the MIC (Clostridium difficile; Table 16, C. difficile A-281) was 0.5 µg/mL and the MIC (Clostridium difficile; Table 16, C. difficile WAL-2112) was ≤ 0.25 µg/mL. The MIC (Clostridium difficile; Table 16, C. difficile WAL-3657) was ≤ 0.25 µg/mL, the MIC (Clostridium difficile; Table 16, C. difficile WAL-4268) was ≤ 0.25 µg/mL and the MIC (Hemophilus influenzae; Haemophilus influenzae 76) was 8 µg/mL. For the same substance, the MIC (Hemophilus influenzae; Haemophilus influenzae C.L.) was 8 µg/mL, the MIC [5] was 1.0 µg/mL and the MIC [6] was ≤ 0.125 µg/mL. The ED50 (S. pyogenes) was 3.24 mg/kg, the ED50 (S. pneumoniae) was 2.21 mg/kg and the ED50 (Staph. aureus) was 0.339 mg/kg. The Solubility (Solubility in solvents) was “soluble in the same solvents as factor A”, the MIC (Streptococcus pneumoniae) was 0.5 µg/mL and the MIC ([7]; Staphylococcus epidermidis EPI1) was 0.25 µg/mL. For the same substance, the MIC ([7]; Staphylococcus epidermidis EPI2) was 1 µg/mL, the MIC (Streptococcus pyogenes) was 0.5 µg/mL and the MIC ([8]; Streptococcus sp. Group D 9960) was 1 µg/mL. For the same substance, the MIC ([8]; Streptococcus sp. Group D X66) was 1 µg/mL, the MIC (Bacteroides vulgatis) was 32 µg/mL and the MIC (Staphylococcus aureus) was 0.25 µg/mL. For the same substance, the MIC (Staphylococcus aureus; Table 17, 24 hours, Staphylococcus aureus S13E) was 0.25 µg/mL, the MIC (Staphylococcus aureus; Table 17, 24 hours, Staphylococcus aureus V41) was 0.25 µg/mL and the MIC (Staphylococcus aureus; Table 17, 24 hours, Staphylococcus aureus X400) was 0.25 µg/mL.
